Patent publication US9982005B2, “Macrolides and methods of their preparation and use” (President and Fellows of Harvard College, priority 2013, dated 2018)
≈ marks a conversion by molar mass, not a printed value. Read-outs that look alike come from different tables or passages of the source.

What was measured:
Type in all cases: cell-based
[1] = tested on: SA101 S. aureus ATCC29213; experiment: broth dilution MIC, S. aureus SA101; settings: Staphylococcus aureus, ATCC29213, SA101 S. aureus ATCC29213; read-out: MIC
Outline: (§1)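 MICs were determined by broth dilution following CLSI standard procedures. Azithromycin served as the control macrolide.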

[2] = tested on: SA183 S. aureus ermA positive msrA unknown; experiment: broth dilution MIC, S. aureus SA183; settings: Staphylococcus aureus
Outline: as §1

[3] = tested on: SA418 S. aureus ermA negative msrA positive; experiment: broth dilution MIC, S. aureus SA418; settings: Staphylococcus aureus
Outline: as §1

[4] = tested on: SA506 S. aureus ermA positive msrA unknown; experiment: broth dilution MIC, S. aureus SA506; settings: Staphylococcus aureus
Outline: as §1

[5] = tested on: SA557 S. aureus ermA unknown msrA positive; experiment: broth dilution MIC, S. aureus SA557; settings: Staphylococcus aureus; SA557 S. aureus ermA unknown msrA positive; read-out: MIC
Outline: as §1

[6] = tested on: SA1707 S. aureus ermA negative msrA positive; experiment: broth dilution MIC, S. aureus SA1707; settings: Staphylococcus aureus
Outline: as §1

[7] = tested on: SA1708 S. aureus ermA positive msrA negative; experiment: broth dilution MIC, S. aureus SA1708; settings: Staphylococcus aureus
Outline: as §1

[8] = tested on: Spn 106 S. pneumonia ATCC49619; experiment: broth dilution MIC, S. pneumoniae Spn 106; settings: Streptococcus pneumoniae
Outline: as §1

[9] = tested on: Spn160 S. pneumoniae ermB unknown mefA positive; experiment: broth dilution MIC, S. pneumoniae Spn160; settings: Streptococcus pneumoniae; Spn160 S. pneumoniae ermB unknown mefA positive; read-out: MIC
Outline: as §1

[10] = tested on: Spn1509 S. pneumoniae ermB positive mefA negative; experiment: broth dilution MIC, S. pneumoniae Spn1509; settings: Streptococcus pneumoniae; Spn1509 S. pneumoniae ermB positive mefA negative; read-out: MIC
Outline: as §1

[11] = tested on: Spn1533 S. pneumoniae ermB positive mefA positive; experiment: broth dilution MIC, S. pneumoniae Spn1533; settings: Streptococcus pneumoniae
Outline: as §1

[12] = tested on: Spn1537 S. pneumoniae ermB positive mefA positive; experiment: broth dilution MIC, S. pneumoniae Spn1537; settings: Streptococcus pneumoniae
Outline: as §1

[13] = tested on: Spn1427 S. pneumoniae ermB positive mefA negative; experiment: broth dilution MIC, S. pneumoniae Spn1427; settings: Streptococcus pneumoniae
Outline: as §1

[14] = tested on: HI175 H. influenzae ATCC49247; experiment: broth dilution MIC, H. influenzae HI175; settings: Haemophilus influenzae
Outline: as §1

HI281 H. influenzae = experiment: broth dilution MIC, H. influenzae HI281; settings: Haemophilus influenzae
Outline: as §1

EC107 E. coli ATCC25922 = experiment: broth dilution MIC, E. coli EC107; settings: Escherichia coli, read-out: MIC
Outline: as §1

EC878 E. coli tolC = experiment: broth dilution MIC, E. coli EC878; settings: Escherichia coli
Outline: as §1

EC882 E. coli imp = experiment: broth dilution MIC, E. coli EC882; settings: Escherichia coli
Outline: as §1

[15] = tested on: BS1723 B. subtilis BS168 WT wild type; experiment: broth dilution MIC, B. subtilis BS1723; settings: Bacillus subtilis, BS1723 B. subtilis BS168 WT wild type; read-out: MIC
Outline: as §1

BS1725 B. subtilis ermC = experiment: broth dilution MIC, B. subtilis BS1725; settings: Bacillus subtilis
Outline: as §1

E. coli strains = experiment: MIC against E. coli strains (Table M7); settings: Escherichia coli, ATCC25922, E. coli ATCC 25922
Outline: as §1

S. aureus strains = experiment: MIC against S. aureus strains (Table M7); settings: Staphylococcus aureus
Outline: as §1

S. pneumoniae strains = experiment: MIC against S. pneumoniae strains (Tables M7, M8); settings: Streptococcus pneumoniae
Excerpt: CLSI standard procedures for broth dilution MIC determination were used. […] These genotypes can be constitutive or inducible.

E. faecalis strains = experiment: MIC against E. faecalis strains (Table M8); settings: Enterococcus faecalis, E. faecalis 29212
A. baumannii strains = experiment: MIC against A. baumannii strains (Table M8); settings: Acinetobacter baumannii, BAA747, A. baumannii BAA747-1
K. pneumoniae strains = experiment: MIC against K. pneumoniae strains (Table M8); settings: Klebsiella pneumoniae, K. pneumoniae 10031
H. influenzae strains = experiment: MIC against H. influenzae strains (Table M8); settings: Haemophilus influenzae
Outline: as §1

[16] = Spn 106 S. pneumonia ATCC49619, read-out: MIC

Structure (SMILES)	MIC [1] [µg/mL]	MIC [2] [µg/mL]	MIC [3] [µg/mL]	MIC [4] [µg/mL]	MIC [5] [µg/mL]	MIC [6] [µg/mL]	MIC [7] [µg/mL]	MIC [8, 16] [µg/mL]	MIC [9] [µg/mL]	MIC [10] [µg/mL]	MIC [11] [µg/mL]	MIC [12] [µg/mL]	MIC [13] [µg/mL]	MIC [14] [µg/mL]	MIC (HI281 H. influenzae) [µg/mL]	MIC (EC107 E. coli ATCC25922) [µg/mL]	MIC (EC878 E. coli tolC) [µg/mL]	MIC (EC882 E. coli imp) [µg/mL]	MIC [15] [µg/mL]	MIC (BS1725 B. subtilis ermC; BS1725 B. subtilis ermC (+ery)) [µg/mL]	also measured
CC[C@H]1OC(=O)C(C)(F)C(=O)[C@@H](C)[C@@H](O[C@@H]2OC(C)CC(N(C)C)C2O)[C@](C)(OC)C[C@@H](C)CN[C@H](C)[C@H]2N(CCCCn3cc(-c4ccccn4)nn3)C(=O)O[C@]12C (stereo partly shown) [FSM-20716]	8 (≈ 9.62 µM)	> 32	16 (≈ 19.2 µM)	> 32	16 (≈ 19.2 µM)	16 (≈ 19.2 µM)	32 (≈ 38.5 µM)	0.25 (≈ 0.3 µM)	0.5 (≈ 0.601 µM)	8 (≈ 9.62 µM)	> 32	> 32	> 32	8 (≈ 9.62 µM)	> 32	> 32	1 (≈ 1.2 µM)	0.25 (≈ 0.3 µM)	8 (≈ 9.62 µM)	> 32	MIC (BS1725 B. subtilis ermC; BS1725 B. subtilis ermC (−ery)): 4 µg/mL (≈ 4.81 µM)
CC[C@H]1OC(=O)C(C)(F)C(=O)[C@@H](C)[C@@H](O[C@@H]2OC(C)CC(N(C)C)C2O)[C@](C)(OC)C[C@@H](C)CN[C@H](C)[C@H]2N(CCCCn3cc(-c4cccc(N)c4)nn3)C(=O)O[C@]12C (stereo partly shown) [FSM-20720]	4 to 8 (≈ 4.73 to 9.46 µM)	> 32	8 (≈ 9.46 µM)	> 32	8 (≈ 9.46 µM)	16 (≈ 18.9 µM)	16 (≈ 18.9 µM)	0.125 (≈ 0.148 µM)	0.5 (≈ 0.591 µM)	2 (≈ 2.36 µM)	> 32	> 32	8 (≈ 9.46 µM)	4 (≈ 4.73 µM)	32 (≈ 37.8 µM)	> 32	1 (≈ 1.18 µM)	1 (≈ 1.18 µM)	4 (≈ 4.73 µM)	> 32	MIC (E. coli strains): > 32 µg/mL; MIC (S. aureus strains; ATCC29213, S. aureus ATCC 29213, read-out: MIC S. aureus (ATCC 29213)): 4 µg/mL (≈ 4.73 µM); MIC (S. aureus strains; S. aureus 506, read-out: MIC S. aureus (506)): > 32 µg/mL; MIC (S. aureus strains; S. aureus 1708, read-out: MIC S. aureus (1708)): 8 µg/mL (≈ 9.46 µM); MIC (S. aureus strains; USA300, S. aureus USA300, read-out: MIC S. aureus (USA300)): 8 µg/mL (≈ 9.46 µM); MIC (S. pneumoniae strains; S. pneumoniae 160, read-out: MIC S. pneumonae (160)): 0.5 µg/mL (≈ 0.591 µM); MIC (S. pneumoniae strains; S. pneumoniae 1509, read-out: MIC S. pneumoniae (1509)): 8 µg/mL (≈ 9.46 µM); MIC (S. pneumoniae strains; S. pneumoniae 1533, read-out: MIC S. pneumoniae (1533)): > 32 µg/mL; MIC (S. pneumoniae strains; S. pneumoniae 1537, read-out: MIC S. pneumoniae (1537)): > 32 µg/mL; MIC (S. pneumoniae strains; S. pneumoniae 49619, read-out: MIC S. pneumoniae (49619)): 1 µg/mL (≈ 1.18 µM); MIC (E. faecalis strains): 2 µg/mL (≈ 2.36 µM); MIC (A. baumannii strains): > 32 µg/mL; MIC (K. pneumoniae strains): 8 µg/mL (≈ 9.46 µM); MIC (H. influenzae strains; H. influenzae 49247, read-out: MIC H. influenzae (49247)): 8 µg/mL (≈ 9.46 µM); MIC (H. influenzae strains; H. influenzae 49766, read-out: MIC H. influenzae (49766)): 32 µg/mL (≈ 37.8 µM)
CC[C@H]1OC(=O)C(C)C(=O)[C@@H](C)[C@@H](O[C@@H]2OC(C)CC(N(C)C)C2O)[C@](C)(OC)C[C@@H](C)CN[C@H](C)[C@H]2N(CCCCn3cc(-c4ccccn4)nn3)C(=O)O[C@]12C (stereo partly shown) [FSM-20754]	2 (≈ 2.46 µM)	> 32	4 (≈ 4.91 µM)	> 32	4 (≈ 4.91 µM)	4 (≈ 4.91 µM)	4 (≈ 4.91 µM)		0.25 (≈ 0.307 µM)	4 (≈ 4.91 µM)	> 32	> 32	> 32	2 (≈ 2.46 µM)	8 (≈ 9.83 µM)	16 (≈ 19.7 µM)	0.5 (≈ 0.614 µM)	0.125 (≈ 0.154 µM)	2 (≈ 2.46 µM)	32 (≈ 39.3 µM)	MIC ([8]; ATCC49619): 0.0625 µg/mL (≈ 0.0768 µM)
